Experimental data published in the supplement of paper PMC10307832.

Experiments:
Test in all cases: relative viability (nuclei count vs DMSO), 5 days (fraction); higher = more cells survive
[1] = test system: NCI-H596
Summary of the method: (§1)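 Cells from lung cancer lines were seeded into 1536-well plates and, one day later, dosed by pin tool. Treatments were either a single drug or a fixed dose of an anchor drug with five library-drug doses (not always all listed) in √10 steps. After 5 days, nuclei were stained in a one-step fixation (final 0.05% Triton X-100, 1% formaldehyde, 1 ug/ml Hoechst) and counted on 4× images, and relative viability is the treated-to-vehicle nuclei ratio, as the median of duplicate plates.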

[2] = test system: NCI-H2023
Summary of the method: as §1

[3] = test system: NCI-H3122
Summary of the method: as §1

[4] = test system: NCI-H2009
Summary of the method: as §1

[5] = test system: PC-14
Summary of the method: as §1

[6] = test system: A-427
Summary of the method: as §1

[7] = test system: NCI-H1793
Summary of the method: as §1

[8] = test system: NCI-H650
Summary of the method: as §1

[9] = test system: SK-LU-1
Summary of the method: as §1

[10] = test system: PC-3 [JPC-3]
Summary of the method: as §1

[11] = test system: NCI-H1975
Summary of the method: as §1

[12] = test system: NCI-H460
Summary of the method: as §1

[13] = test system: NCI-H1915
Summary of the method: as §1

[14] = test system: HCC-15
Summary of the method: as §1

[15] = test system: HCC-366
Summary of the method: as §1

[16] = test system: NCI-H1437
Summary of the method: as §1

[17] = test system: NCI-H2405
Summary of the method: as §1

[18] = test system: LXF-289
Summary of the method: as §1

[19] = test system: NCI-H441
Summary of the method: as §1

[20] = test system: IA-LM
Summary of the method: as §1

[21] = test system: UMC-11
Summary of the method: as §1

[22] = test system: H3255
Summary of the method: as §1

[23] = test system: NCI-H1755
Summary of the method: as §1

[24] = test system: HARA
Summary of the method: as §1

SMILES: CCCCCCCCCCCC1=C(O)C(=O)C=C(O)C1=O [Embelin] + Cc1nc(NC(=O)N2CCC[C@H]2C(N)=O)sc1-c1ccnc(C(C)(C)C(F)(F)F)c1 [Alpelisib] (partner 2 µM)
- relative viability ([1]; first compound 0.08 µM): 0.487
- relative viability ([1]; first compound 0.8 µM): 0.522
- relative viability ([1]; first compound 2.53 µM): 0.482
- relative viability ([1]; first compound 8 µM): 0.581
- relative viability ([2]; first compound 0.08 µM): 0.708
- relative viability ([2]; first compound 0.8 µM): 0.532
- relative viability ([2]; first compound 2.53 µM): 0.651
- relative viability ([2]; first compound 8 µM): 0.639
- relative viability ([3]; first compound 0.08 µM): 0.746
- relative viability ([3]; first compound 0.8 µM): 0.697
- relative viability ([3]; first compound 2.53 µM): 0.728
- relative viability ([3]; first compound 8 µM): 0.737
- relative viability ([4]; first compound 0.08 µM): 1.26
- relative viability ([4]; first compound 0.8 µM): 1.27
- relative viability ([4]; first compound 2.53 µM): 1.18
- relative viability ([4]; first compound 8 µM): 1.16
- relative viability ([5]; first compound 0.08 µM): 0.9
- relative viability ([5]; first compound 0.8 µM): 0.973
- relative viability ([5]; first compound 2.53 µM): 0.976
- relative viability ([5]; first compound 8 µM): 0.959
- relative viability ([6]; first compound 0.08 µM): 1.1
- relative viability ([6]; first compound 0.8 µM): 1.13
- relative viability ([6]; first compound 2.53 µM): 1.12
- relative viability ([6]; first compound 8 µM): 1.07
- relative viability ([7]; first compound 0.08 µM): 0.752
- relative viability ([7]; first compound 0.8 µM): 0.972
- relative viability ([7]; first compound 2.53 µM): 0.794
- relative viability ([7]; first compound 8 µM): 0.728
- relative viability ([8]; first compound 0.08 µM): 1.14
- relative viability ([8]; first compound 0.8 µM): 1.26
- relative viability ([8]; first compound 2.53 µM): 1.02
- relative viability ([8]; first compound 8 µM): 1.06
- relative viability ([9]; first compound 0.08 µM): 1.29
- relative viability ([9]; first compound 0.8 µM): 1.31
- relative viability ([9]; first compound 2.53 µM): 1.37
- relative viability ([9]; first compound 8 µM): 0.904
- relative viability ([10]; first compound 0.08 µM): 1.03
- relative viability ([10]; first compound 0.8 µM): 0.988
- relative viability ([10]; first compound 2.53 µM): 1.08
- relative viability ([10]; first compound 8 µM): 1.05
- relative viability ([11]; first compound 0.08 µM): 0.663
- relative viability ([11]; first compound 0.8 µM): 0.674
- relative viability ([11]; first compound 2.53 µM): 0.696
- relative viability ([11]; first compound 8 µM): 0.674
- relative viability ([12]; first compound 0.08 µM): 0.448
- relative viability ([12]; first compound 0.8 µM): 0.574
- relative viability ([12]; first compound 2.53 µM): 0.698
- relative viability ([12]; first compound 8 µM): 0.517
- relative viability ([13]; first compound 0.08 µM): 1.12
- relative viability ([13]; first compound 0.8 µM): 1.15
- relative viability ([13]; first compound 2.53 µM): 1.11
- relative viability ([13]; first compound 8 µM): 1.08
- relative viability ([14]; first compound 0.08 µM): 0.882
- relative viability ([14]; first compound 0.8 µM): 0.864
- relative viability ([14]; first compound 2.53 µM): 0.957
- relative viability ([14]; first compound 8 µM): 0.995
- relative viability ([15]; first compound 0.08 µM): 0.411
- relative viability ([15]; first compound 0.8 µM): 0.418
- relative viability ([15]; first compound 2.53 µM): 0.412
- relative viability ([15]; first compound 8 µM): 0.427
- relative viability ([16]; first compound 0.08 µM): 0.916
- relative viability ([16]; first compound 0.8 µM): 1.05
- relative viability ([16]; first compound 2.53 µM): 1.32
- relative viability ([16]; first compound 8 µM): 0.697
- relative viability ([17]; first compound 0.08 µM): 0.853
- relative viability ([17]; first compound 0.8 µM): 1.11
- relative viability ([17]; first compound 2.53 µM): 0.774
- relative viability ([17]; first compound 8 µM): 0.793
- relative viability ([18]; first compound 0.08 µM): 1.03
- relative viability ([18]; first compound 0.8 µM): 1.07
- relative viability ([18]; first compound 2.53 µM): 1.08
- relative viability ([18]; first compound 8 µM): 1.13
- relative viability ([19]; first compound 0.08 µM): 0.85
- relative viability ([19]; first compound 2.53 µM): 0.933
- relative viability ([19]; first compound 8 µM): 0.847
- relative viability ([20]; first compound 0.08 µM): 0.778
- relative viability ([20]; first compound 0.8 µM): 0.753
- relative viability ([20]; first compound 2.53 µM): 0.839
- relative viability ([20]; first compound 8 µM): 0.191
- relative viability ([21]; first compound 0.08 µM): 0.969
- relative viability ([21]; first compound 0.8 µM): 1.07
- relative viability ([21]; first compound 2.53 µM): 1.24
- relative viability ([21]; first compound 8 µM): 1.2
- relative viability ([22]; first compound 0.08 µM): 0.935
- relative viability ([22]; first compound 0.8 µM): 0.804
- relative viability ([22]; first compound 2.53 µM): 0.766
- relative viability ([22]; first compound 8 µM): 0.653
- relative viability ([23]; first compound 0.08 µM): 0.906
- relative viability ([23]; first compound 0.8 µM): 0.966
- relative viability ([23]; first compound 2.53 µM): 0.994
- relative viability ([23]; first compound 8 µM): 0.934
- relative viability ([24]; first compound 0.08 µM): 0.848
- relative viability ([24]; first compound 0.8 µM): 0.887
- relative viability ([24]; first compound 2.53 µM): 0.989
- relative viability ([24]; first compound 8 µM): 0.702
